Residues, ends and D or L forms follow the SMILES beside them.
Experiments:
PD1/PD-L1 = PD1/PD-L1 (Homo sapiens, UniProt Q9NZQ7); assay: IC50 and blocking efficiency against PD1/PD-L1 (Table 5); assay type: binding
Procedure: (§1) Blocking efficiency at 10 μM/IC50 against human and mouse PD1/PD-L1 (ELISA). […] 100 ng of recombinant human PD-L1 protein was coated in 96-well plates at 4° C. for 16 h with shaking over an orbital shaker. Unbound protein was removed by washing twice with PBS (pH 7.2-7.4), 2% BSA was added for 1.5 h at 37° C. to block the plate. Specific concentrations of the peptides were dispensed into the appropriate wells and incubated for 2 h at 37° C. […] This was followed by the addition of streptavidin-HRP and chromogenic substrate (R & D systems). The color reaction was terminated with 2N H2SO4, absorbance was recorded at OD450 and referenced to OD540.

[1] = Proteolytic stability in 50% human serum (LC-MS); assay type: in vitro ADME
Procedure: Half-life in 50% human serum. Proteolytic stability of the peptides was investigated using LC-MS. Solutions of the anti-PD-L1 peptides were incubated with 50% human serum at […], aliquots were taken at specific time points for processing and subsequent LC-MS analysis.

hPD-L1 [2] = molecular target: T1, hPD-L1 (Homo sapiens, UniProt Q9NZQ7); assay: PD-1/PD-L1 inhibitor screening ELISA, human proteins; assay type: binding; set-up: purchased Acro Biosystems EP-101
Procedure: as §1

[3] = tested on: CT26 tumor-bearing Balb/C mice; assay: Survival of CT26 tumor-bearing Balb/C mice; assay type: in vivo, mouse
Text: (§2) Animal Study. The animal protocol was approved by the University of Missouri-Kansas City, Institutional Animal Care and Use Committee (IACUC). Five-week old male and female Balb/c mice were purchased from Charles Rivers Laboratories (Wilmington, Mass.) and housed in a temperature and humidity controlled room on a 12-hour light-dark cycle. Approximately 5×10^5 CT26 cells were subcutaneously injected into the right flank. The mice were randomly divided into five different groups (10 mice/group, 50% female, 50% male). The mice were intraperitoneally injected with 2 mg/kg peptide daily when the tumor size reached 50-100 mm^3. The anti-mouse PD-L1 antibody (10F.9G2, BioXcell) was administrated as a positive control at a dose of 10 mg/kg every two days. The tumor size was assessed with a caliper and calculated with the formula 0.5×length×width^2. ELISA kits of PD-L1 (Cat #DY1019-05), IFNγ (Cat #DY485-05), and IL-6 (Cat #DY406-05) were used to measure the expressions of PD-L1, IFNγ, and IL-6, respectively, in tumors as per the company's instructions (R & D Systems, Minneapolis, MN).
In this Example, mice were intraperitoneally injected with the CLP002 (SEQ ID NO:2) and CLP003 (SEQ ID NO:3) peptides daily or the anti-mouse PD-L1 antibody every other day from day 4 to day 17 (see survival curves in FIG. 7a). Specifically, CT26 tumor-bearing Balb/C mice (n=10, 5 male and 5 female) were intraperitoneally injected with the anti-PD-L1 peptides (2 mg/Kg) daily and the anti-mouse PD-L1 antibody (10 mg/Kg) every other day from day 4 to day 17. GraphPad Prism 7 software (San Diego, Calif.) was used for statistical analysis. Comparison of two survival curves were conducted using the Gehan-Breslow-Wilcoxon test. […] By contrast, only 20% of the mice in the CLP002 (SEQ ID NO:2) group were dead by day 17.

[4] = tested on: CT26 colorectal tumor-bearing mouse model; assay: Anti-tumor activity in CT26 tumor-bearing Balb/C mice; assay type: in vivo
Text: as §2
The anti-mouse PD-L1 antibody (BioXcell, 10F.9G2) was administered intraperitoneally every other day at 10 mg/kg. […] In general, CLP002 (SEQ ID NO:2) exerted a better tumor inhibitory effect than CLP003 (SEQ ID NO:3), which was similar to the antibody. […] In FIG. 6e the weight of the tumors harvested at day 14 is shown. The results were represented as the mean±SD (n=10). It is noteworthy that the peptides were screened against the human PD-L1 protein, which, in fact, would compromise the anti-tumor activity of the peptides in a mouse model.

DU145 cancer cell = assay type: cell-based, human; conditions: for IC50: 2 h; for Blocking Efficiency (%): DU-145 cancer cells
Procedure: (§3) Ninety-six-well plates were coated with 100 ng of PD-L1 protein (G&P Biosciences, human PD-L1 ECD, cat #FCL0784B. mouse PD-L1, cat #FCL3502B) and later blocked with 2% BSA for 2 hours at room temperature. Various concentrations of peptides were loaded into the wells and incubated for 1 hour at room temperature. […] Streptavidin-HRP (R & D systems) and chromogenic substrate were added into the wells. OD450 was then recorded and referenced to OD540.
The blocking efficiency of the anti-PD-L1 peptides at 10 μM (FIG. 2c). […] The IC50 of each peptide was also determined using recombinant human PD-L1 protein and DU-145 cancer cells.

[5] = tested on: CD8+ T cells in CT26 tumor tissues; assay: IHC staining of CD8+ T cells in CT26 tumor tissues; assay type: in vivo, mouse
Procedure: Immunohistochemistry (IHC) Staining. Tumor tissues were fixed in 10% formalin, embedded in paraffin, sectioned, and mounted on glass slides by Truman Medical Centers Anatomic Pathology Core (Kansas City, MO). The slides were heated in Tris buffer (pH 9.0) for 45 min to recover antigen. After deparaffinization and rehydration, the sections were stained with the anti-mouse CD8 alpha antibody (Abcam, ab209775) overnight at 4° C. The slides were incubated with a biotinylated goat anti-rabbit secondary antibody, followed by the DAB chromogen mixture. Four sections (2 male and 2 female) were imaged in each group. For each section, 3 regions were randomly selected for imaging.

4T1 cancer cell = assay type: cell-based, mouse; conditions: for Blocking Efficiency (%): 4T1 cancer cell; for IC50: 2 h
[6] = tested on: IFNγ, PD-L1 and IL-6 in CT26 tumors; assay: ELISA of IFNγ, PD-L1 and IL-6 in harvested CT26 tumors; assay type: in vivo, mouse
Text: as §2

[7] = molecular target: T2, recombinant human PD-L1 ECD protein (Homo sapiens, UniProt Q9NZQ7); assay: SPR binding kinetics and affinity to immobilized human PD-L1; conditions: for kon: read-out: Ka
T2 construct: against the recombinant human PD-L1 ECD protein were evaluated using SPR; purchased G&P Biosciences FCL0784B
Procedure: In such aspects, the equilibrium dissociate constant KD value against recombinant human PD-L1 can be determined according to an KD to PD-L1 SPR Assay. The KD to PD-L1 SPR Assay can include the use of Surface Plasmon Resonance (SPR), such as the B14500, Biosensing Instrument, and can include the following procedures. The PD-L1 protein can be diluted to 10 μg/mL with sodium acetate buffer (pH 5.0, GE Healthcare, PA) and covalently coated onto a CM5 sensor chip (CM Dextran Sensor Chip, Biosensing Instrument) using the standard Amine Coupling Kit (GE Healthcare, PA). Approximately 6500 RU of PD-L1 protein are immobilized onto the chip. A second channel is used as a reference. HBS-EP+ buffer (GE Healthcare) can be employed at a flow rate of 60 μL/min. A series of concentrations of each peptide (15, 30, 60, 125, 250, 500, 1000, 5000 and 10,000 nM) is prepared in HBS-EP+ running buffer to obtain the equilibrium dissociation constant (KD) values of the peptides. The CM5 sensor chip can be regenerated with 10 mM NaOH for 20 s. The results can be analyzed using the software of Bi data analysis software.
Evaluation of Binding Kinetics and Affinity By Surface Plasmon Resonance (SPR). Binding affinities of the PD-L1 specific peptides for human PD-L1 protein were determined by SPR (B14500, Biosensing Instrument). PD-L1 protein was diluted to 10 μg/mL with sodium acetate buffer (pH 5.0, GE Healthcare, PA) and covalently coated onto a CM5 sensor chip (CM Dextran Sensor Chip, Biosensing Instrument) using the standard Amine Coupling Kit (GE Healthcare, PA). Approximately 6500 RU of PD-L1 protein were immobilized onto the chip. A second channel was used as a reference. HBS-EP+ buffer (GE Healthcare) was employed at a flow rate of 60 μL/min. A series of concentrations of each peptide (15, 30, 60, 125, 250, 500, 1000, 5000 and 10,000 nM) were prepared in HBS-EP+ running buffer to obtain the equilibrium dissociation constant (KD) values of the peptides. The CM5 sensor chip was regenerated with 10 mM NaOH for 20 seconds. The results were analyzed using the software of Bi data analysis software. Binding affinities of the anti-PD-L1 peptides to BSA was also assessed following the procedure for human PD-L1.

hPD-L1 [8] = molecular target: T1, hPD-L1; assay: Blockade of the PD-1/PD-L1 interaction, plate coated with human PD-L1 protein; assay type: binding; set-up: PD-L1 protein (G&P Biosciences, human PD-L1 ECD, cat #FCL0784B); purchased G&P Biosciences FCL0784B (PD-L1); conditions: for Blocking Efficiency (%): human PD-L1 protein
Procedure: as §3

mPD-L1 = mPD-L1 (Mus musculus, UniProt Q9EP73); assay: Blockade of the mouse PD-1/PD-L1 interaction, mouse PD-L1 protein; assay type: binding; set-up: purchased G&P Biosciences FCL3502B (PD-L1); conditions: mouse PD-L1 protein
Procedure: as §3

[9] = molecular target: human PD-L1/CD80 interaction (Homo sapiens, UniProt Q9NZQ7); assay: Blockade of the CD80/PD-L1 interaction; assay type: binding; conditions: at 10 μM, FIG. 8a
[10] = tested on: Jurkat T cells co-cultured with DU-145 cancer cells; assay: Jurkat T cell proliferation in co-culture with DU-145 cells (CellTiter-Glo); assay type: cell-based, human; conditions: peptide 5 μM, 24 hours
Procedure: Proliferation and Apoptosis Assays. […] Briefly, 3×10^4 Jurkat T cells were cultured alone or co-cultured with 1.5×10^5 DU-145 cancer cells in a 24-well plate for the proliferation assay. For the apoptosis assay, 6×10^4 Jurkat T cells were cultured alone or co-cultured with 3×10^5 DU-145 cancer cells in a 6-well plate. After incubation with the anti-PD-L1 peptides (5 μM) or anti-PD-L1 antibody (1 μM) for 24 hours, Jurkat T cells were harvested from the supernatant. Proliferation of Jurkat cells was determined using the CellTiter-Glo luminescent cell viability assay (Promega, WI), and apoptosis of the cells were determined using the Dead Cell Apoptosis Kit with Annexin V Alexa Fluor® 488 and Propidium Iodide (Thermo-Fisher Scientific, Pittsburgh, PA) as we described before^21.

Chain of mPD-L1 (Q9EP73 19-239 limits assumed): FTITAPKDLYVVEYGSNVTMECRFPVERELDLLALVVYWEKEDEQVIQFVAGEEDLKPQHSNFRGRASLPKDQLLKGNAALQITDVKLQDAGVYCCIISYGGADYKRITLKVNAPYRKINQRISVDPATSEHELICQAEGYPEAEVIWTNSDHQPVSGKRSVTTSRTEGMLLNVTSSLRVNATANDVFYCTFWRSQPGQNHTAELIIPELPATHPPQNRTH
T1 sequence (Q9NZQ7 19-238 limits assumed): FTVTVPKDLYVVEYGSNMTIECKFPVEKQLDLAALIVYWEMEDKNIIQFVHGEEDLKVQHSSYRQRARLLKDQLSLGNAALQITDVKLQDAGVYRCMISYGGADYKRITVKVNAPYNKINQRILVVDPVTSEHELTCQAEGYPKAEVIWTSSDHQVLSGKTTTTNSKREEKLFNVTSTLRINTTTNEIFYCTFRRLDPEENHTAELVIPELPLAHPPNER
T2 sequence (Q9NZQ7 19-238 limits assumed): as above
Chain of human PD-L1/CD80 interaction (Q9NZQ7 19-238 limits assumed): as above
Chain of PD1/PD-L1 (Q9NZQ7 19-238 limits assumed): as above

| SMILES | IC50 (DU145 cancer cell) [nM] | Blocking Efficiency (%) (DU145 cancer cell) | Blocking Efficiency (%) (4T1 cancer cell) | IC50 (4T1 cancer cell) [nM] | kon [7] [M⁻¹ s⁻¹] | Blocking Efficiency (%) (mPD-L1) | Blocking efficiency against CD80/PD-L1 interaction [9] | Blocking Efficiency (%) (hPD-L1 [8]) | also measured |
| --- | --- | --- | --- | --- | --- | --- | --- | --- | --- |
| C[C@@H](O)[C@H](NC(=O)[C@H](Cc1ccc(O)cc1)NC(=O)[C@H](Cc1ccc(O)cc1)NC(=O)[C@H](CO)NC(=O)[C@H](CCCNC(=N)N)NC(=O)[C@H](Cc1c[nH]cn1)NC(=O)[C@@H](N)Cc1c[nH]c2ccccc12)C(=O)N[C@@H](Cc1c[nH]c2ccccc12)C(=O)N[C@@H](CC(N)=O)C(=O)O [CLP2TR3] (H-WHRSYYTWN-OH; N-terminus and C-terminus assumed) | – | – | – | – | – | – | – | – | % Blocking efficiency at 10 μM (PD1/PD-L1): 80%; half-life [1]: 15 min; % Blocking efficiency at 10 μM (ELISA) hPD-L1 (hPD-L1 [2]): 80% |
| CC(C)C[C@H](NC(=O)[C@H](Cc1c[nH]c2ccccc12)NC(=O)[C@H](CCCNC(=N)N)NC(=O)[C@H](Cc1c[nH]c2ccccc12)NC(=O)[C@H](CC(N)=O)NC(=O)[C@H](Cc1ccc(O)cc1)NC(=O)[C@H](CO)NC(=O)[C@H](Cc1ccccc1)NC(=O)[C@H](Cc1c[nH]cn1)NC(=O)[C@@H](N)Cc1c[nH]c2ccccc12)C(=O)N1CCC[C@H]1C(=O)N1CCC[C@H]1C(=O)O [CLP003] (H-WHFSYNWRWLPP-OH; N-terminus and C-terminus assumed) | 3050 | 56 | 50 | 1000 | 22600 | – | – | – | Tumor growth in the survival study ([3]; Example 7, individual growth curves): other mice experienced a rapid tumor progression; Mice died on day 17 (in words) ([3]; n=10): only one mouse died on day 17; Survival of tumor-bearing mice ([3]; treatment from day 4 to day 17): modestly improved the survival; Tumor growth ([4]; peptides 2 mg/kg i.p. daily, antibody 10 mg/kg i.p. every other day): effectively suppressed tumor growth; Tumor weights at day 14 ([4]; versus saline group): significantly smaller than the saline group; Density of CD8+ T cells in tumor tissues [5]: significantly increased; IL-6 expression in tumor tissues [6]: decreased expression of IL-6; Kd [7]: 117 nM; IC50 (hPD-L1 [8]; plate coated with human PD-L1 protein): 2220 nM |
| CC(C)C[C@H](NC(=O)[C@@H](NC(=O)[C@@H]1CCCN1C(=O)[C@H](CC(C)C)NC(=O)[C@H](CO)NC(=O)[C@@H]1CCCN1C(=O)[C@H](CC(=O)O)NC(=O)[C@H](Cc1c[nH]cn1)NC(=O)[C@H](Cc1ccc(O)cc1)NC(=O)[C@@H](N)CC(=O)O)[C@@H](C)O)C(=O)N[C@@H](CCCNC(=N)N)C(=O)N[C@@H](CCCCN)C(=O)O [CLP004] (H-DYHDPSLPTLRK-OH; N-terminus and C-terminus assumed) | 200 | 60 | 34 | 730 | 5140 | 48 | ~27% | 52 | IC50 (mPD-L1): 1910 nM |
| C[C@H](NC(=O)[C@H](CCC(N)=O)NC(=O)[C@H](CC(N)=O)NC(=O)[C@H](C)NC(=O)[C@H](Cc1c[nH]cn1)NC(=O)[C@@H]1CCCN1C(=O)[C@H](CCCNC(=N)N)NC(=O)[C@H](Cc1ccccc1)NC(=O)[C@@H]1CCCN1C(=O)[C@H](Cc1ccc(O)cc1)NC(=O)[C@@H](N)Cc1c[nH]cn1)C(=O)N[C@@H](CO)C(=O)O [CLP001] (H-HYPFRPHANQAS-OH; N-terminus and C-terminus assumed) | – | 0 | 35 | 910 | 5190 | 34 | approximately 17% | 0 | Effect on Jurkat T cell proliferation [10]: did not observe the same effect; Blocking of the human PD-1/PD-L1 interaction (in words) (hPD-L1 [8]; peptides at 10 μM, FIG. 2c): did not block |

Source: patent US12258424B2, “Polypeptides and compositions comprising the same” (priority 2020, dated 2025)
